For data set [1] the following is noted: cited from earlier work. From the text:
To our knowledge, the combination of peptide–polyene–tetramic acid moieties is unique to epifadin. […] In contrast to the ionophore act ...

The test system of another data set is S. aureus USA300LAC. In words: Determination of the IC (miniaturized agar diffusion assay). The format is cell-based, Staphylococcus aureus. Conditions: agar diffusion on inoculated TSA, 35 µl in 4-mm wells, 24 h 37 °C dark; IC from inhibited agar volume at lowest active amount. The procedure:
(§1) Instead, a miniaturized assay was developed. Molten TSA, kept below 42 °C, was inoculated with different test strains at an OD600 of 0.00125. Then, 17.5 ml was poured into Petri dishes, resulting in agar layers of ~3.16 mm thickness. After solidification, a cork borer was used to punch wells of 4-mm diameter into the agar. Thirty-five microlitres of purified epifadin in DMSO–PA (2.4 µg, 1.2 µg, 0.6 µg, 0.3 µg, 0.15 µg and 0.075 µg) was pipetted into the wells, and agar plates were incubated for 24 h at 37 °C in the dark. Diameters of the zones of inhibition were measured and the volume containing the inhibitory epifadin concentration was calculated, using the following formula for cylinder volume: Vc=πxr^2xhVc=cylindervolumeVi=πrz2xha−(πrw2xha)Vi=inhibitedvolumerz2=radius(diameter/2)zoneofinhibitionrw2=radius(diameter/2)ofwellha=heightofagar
(§2) The volume of agar showing inhibition of the test strain was then correlated with the included amount of epifadin, and the epifadin concentration necessary to inhibit test strain growth in a 1 ml volume was calculated to yield IC values. If, for example, 2.4 µg of epifadin lead to an inhibited volume of 480 µl, to inhibit a volume of 1 ml, 5 µg epifadin is needed, which corresponds to an IC of 5 μg ml^−1. These calculations were conducted for the lowest amount of epifadin that led to a zone of inhibition to minimize the necessary epifadin amounts and the calculation error due to the gradient within the inhibition zone. As a control, the same assay was used to determine the IC for vancomycin, daptomycin and lugdunin under these conditions.

Another data set deals with S. aureus USA300 JE2. Described as above. The data set is classed as cell-based, Staphylococcus aureus. The following applies: agar diffusion on inoculated TSA, 24 h 37 °C dark; IC from inhibited agar volume. As to the method: as §1, §2
(In general: In agar diffusion tests the substance spreads into inoculated agar from a disc or well.)

A further data set concerns S. aureus USA300 LAC. As to the kind of experiment: Stability analysis of epifadin (bioactivity by agar diffusion after incubation). The format is physicochemical, Staphylococcus aureus. Conditions: lugdunin 70 µg/ml in TSB, 37 °C, pH 7, light, r4-r10 = 0-6 h. The procedure: Fig. 2 High instability of epifadin under in vivo-like conditions. S. epidermidis IVK83 culture supernatants containing epifadin were precipitated with HCl, freeze-dried and extracted with DMSO. This extract was diluted in TSB, incubated for the indicated time periods with constant shaking under the respective conditions and subsequently tested for activity towards S. aureus USA300 LAC. a, Stability of epifadin compared with other antibacterial agents under standard laboratory conditions (37 °C, pH 7, laboratory light exposure). b, In vivo-like conditions with laboratory light exposure at pH 7 (nasal condition) or pH 5.5 (skin condition) and reduced temperatures; incubation of epifadin under exclusion from light enabled further purification and activity determination. Conditions at pH 7, 37 °C and 0 h were used as reference for 100% stability. Data shown represent the mean ± s.d. of three independent experiments. Source data
The effect of different incubation conditions on the bioactivity of epifadin was analysed by agar diffusion assays on lawns of the sensitive indicator strain S. aureus USA300 LAC. To this end, liquid TSA was inoculated with an overnight culture of USA300 at an OD600 of 0.00125. After solidification of the agar, a cork borer was used to punch wells into the agar with 5 mm diameter. TSB media with 50 mM sodium citrate (pH 5 and 6) or 50 mM tris(hydroxymethyl)aminomethane (pH 8 and 9) were prepared. Epifadin-containing precipitate was dissolved in DMSO (12 mg ml^−1), and insoluble particles were removed by centrifugation. The supernatant was added to the prepared TSB media at a final concentration of 750 µg precipitate per millilitre (37.5 µg in 50 µl). Media were incubated for 6 h at 21 °C, 30 °C or 37 °C with or without laboratory light exposure and constant shaking at 500 rpm in a thermomixer (Eppendorf). As controls, 70 µg ml^−1 (3.5 µg in 50 µl) lugdunin, 24 µg ml^−1 (1.2 µg in 50 µl) gallidermin and 100 µg ml^−1 (5 µg in 50 µl) nisin were used. At different timepoints, 50 µl of each sample was pipetted into the wells of the agar plates. After incubation at 37 °C overnight, zones of inhibition were analysed with ImageJ software (version 1.8.0_112).

Regarding `CCCCCCC/C=C/C(=O)N1C(O)=C(C(C)=O)C(=O)[C@H]1CC(C)C` [reutericyclin A], in data set [1], the antimicrobial activity result was “antimicrobial”.

Regarding `CC(=O)C1=C(O)[C@@H](CC(C)C)NC1=O` [mutanocyclin], the antimicrobial activity entry in data set [1] is reported as “not antimicrobial”.

As for Lugdunin, the “IC*” value in the data set on S. aureus USA300LAC came to 7.3 µg/mL; in the data set with S. aureus USA300 JE2 it was 8.5 µg/mL. The “stability (remaining antimicrobial activity, 0 h = 100%)” value in the data set on S. aureus USA300 LAC (experiment 1 of 3, after 1 h incubation) is 83.34%; in the data set on S. aureus USA300 LAC (experiment 1 of 3, after 2 h incubation), 75.95%; in the data set with S. aureus USA300 LAC (experiment 1 of 3, after 3 h incubation), 68.18%; in the data set with S. aureus USA300 LAC (experiment 1 of 3, after 4 h incubation), 72.38%; with S. aureus USA300 LAC (experiment 1 of 3, after 5 h incubation) it was 65.52%; in the data set on S. aureus USA300 LAC (experiment 1 of 3, after 6 h incubation), 61.66%. Further, the “stability (remaining antimicrobial activity, 0 h = 100%)” value in the data set with S. aureus USA300 LAC (experiment 2 of 3, after 1 h incubation) was 81.19%; with S. aureus USA300 LAC (experiment 2 of 3, after 2 h incubation) it was 74.91%; with S. aureus USA300 LAC (experiment 2 of 3, after 3 h incubation) it was 69.51%; in the data set with S. aureus USA300 LAC (experiment 2 of 3, after 4 h incubation), 68.58%; in the data set with S. aureus USA300 LAC (experiment 2 of 3, after 5 h incubation), 65.27%; in the data set with S. aureus USA300 LAC (experiment 2 of 3, after 6 h incubation), 69.75%. Also, the “stability (remaining antimicrobial activity, 0 h = 100%)” value in the data set with S. aureus USA300 LAC (experiment 3 of 3, after 1 h incubation) turned out to be 81.54%; in the data set on S. aureus USA300 LAC (experiment 3 of 3, after 2 h incubation) it was 76.22%; in the data set on S. aureus USA300 LAC (experiment 3 of 3, after 3 h incubation), 72.30%; in the data set with S. aureus USA300 LAC (experiment 3 of 3, after 4 h incubation) it was 70.84%; in the data set on S. aureus USA300 LAC (experiment 3 of 3, after 5 h incubation), 67.83%; in the data set on S. aureus USA300 LAC (experiment 3 of 3, after 6 h incubation) it was 62.11%.

The values are drawn from article PMC11310079, “Commensal production of a broad-spectrum and short-lived antimicrobial peptide polyene eliminates nasal Staphylococcus aureus” (Nature Microbiology, 2023).
